# From US12102659B2, “Methods for the prevention or treatment of heart failure” (Cornell University, priority 2009, dated 2024)
# Columns and labels:
# [1] = test system: several mammalian cell types; conditions: energy-independent manner; cited from earlier work
# neonatal cardiomyocytes = experiment: Mitosox flow cytometry of mitochondrial ROS in neonatal cardiomyocytes stimulated with Ang II; format: cell-based, mouse
# Description: Neonatal mouse cardiomyocyte culture and flow cytometry. Ventricles from mouse neonates younger than 72 hours were dissected, minced, and enzymatically digested with Blendzyme 4 (45 μg/ml, Roche). After enzymatic digestion, cardiomyocytes were enriched using differential pre-plating for 2 hours, then seeded on fibronectin-coated culture dishes for 24 hours in DMEM (Gibco), with 20% Fetal Bovine Serum (Sigma) and 25 μM Arabinosylcytosine (Sigma). Cardiomyocytes were stimulated with Angiotensin II (1 μM) for 3 hours in serum-free DMEM containing 0.5% insulin transferrin-selenium (Sigma), 2 mM glutamine, and 1 mg/ml of BSA. Cardiomyocytes were simultaneously treated with either of the following: SS-31 (1 nM), N-acetyl cysteine (NAC: 0.5 mM), or PBS control. To measure mitochondrial superoxide concentration, Mitosox (5 μM) was incubated for 30 min at 37° C. to load cardiomyocytes, followed by 2 washes, with Hanks Balanced Salt Solution. Samples were analyzed using excitation/emission of 488/625 nm by flow cytometry. Flow data was analyzed using FCS Express (De Novo Software, Los Angeles, CA), and presented as histogram distributions of Mitosox fluorescence intensity.
# C57BL6 mice [2] = experiment: Quantitative pathology of ventricular fibrosis (Masson Trichrome) after 4 weeks of Ang II; format: in vivo, mouse; conditions: 4 weeks of Ang II
# Description: (§1) Mouse experiments, drug delivery, echocardiography and blood pressure measurement. All animal experiments were approved by the University of Washington Institutional Animal Care and Use Committee. C57BL6 mice were housed in a barrier specific pathogen-free facility. Six to ten mice were included in each experimental group (Saline, Ang II, Ang II+SS-31, WT, Gαq, Gαq+SS-31). A pressor dose of Ang II (1.1 mg/kg/d) was continuously administered for 4 weeks using subcutaneous Alzet 1004 osmotic minipumps, with or without addition of SS-31 (3 mg/kg/d). Echocardiography was performed at baseline and after 4 weeks of pump implantation using a Siemens Acuson CV-70 equipped with a 13 MHz probe. Under 0.5% isoflurane to reduce agitation, standard M-mode, conventional and Tissue Doppler images were taken, and functional calculations were performed according to American Society of Echocardiography guidelines. MP1 was calculated as the ratio of the sum of isovolemic contraction and relaxation time to LV ejection time. An increase in MPI is an indication that a greater fraction of systole is spent to cope with the pressure changes during the isovolemic phases. […]
# Quantitative Pathology. […] Quantitative analysis of fibrosis was performed by measuring the percentage of blue-staining fibrotic tissue relative to the total cross-sectional area of the ventricles.
# [3] = test system: ANP, Collagen 1a2, PGC1-α, TFAM, NRF-1, NRF-2; experiment: Quantitative PCR of cardiac gene expression after 4 weeks of Ang II; format: in vivo, mouse
# Description: (§2) Mouse experiments, drug delivery, echocardiography and blood pressure measurement. All animal experiments were approved by the University of Washington Institutional Animal Care and Use Committee. C57BL6 mice were housed in a barrier specific pathogen-free facility. Six to ten mice were included in each experimental group (Saline, Ang II, Ang II+SS-31, WT, Gαq, Gαq+SS-31). A pressor dose of Ang II (1.1 mg/kg/d) was continuously administered for 4 weeks using subcutaneous Alzet 1004 osmotic minipumps, with or without addition of SS-31 (3 mg/kg/d). Echocardiography was performed at baseline and after 4 weeks of pump implantation using a Siemens Acuson CV-70 equipped with a 13 MHz probe. Under 0.5% isoflurane to reduce agitation, standard M-mode, conventional and Tissue Doppler images were taken, and functional calculations were performed according to American Society of Echocardiography guidelines. MP1 was calculated as the ratio of the sum of isovolemic contraction and relaxation time to LV ejection time. An increase in MPI is an indication that a greater fraction of systole is spent to cope with the pressure changes during the isovolemic phases. As a reference for SS-31 peptide effect in Ang II treated mice, a genetic mouse model of Rosa-26 inducible-mCAT was included, in which mitochondrial catalase was overexpressed two weeks before Ang II treatment.
# Quantitative PCR. Gene expression was quantified by quantitative real time PCR using an Applied Biosystems 7900 themocycler with Taqman Gene Expression Assays on Demand, which included: PGC1-α (Mm00731216), TFAM (Mm00447485), NRF-1 (Mm00447996), NRF-2 (Mm00487471), Collagen 1a2 (Mm00483937), and ANP (Mm01255747). Expression assays were normalized to 18S RNA.
# NADPH oxidase = NADPH oxidase activity in ventricular protein extract after 4 weeks of Ang II; format: in vivo, mouse; conditions: 4 weeks Ang II (vs. saline) or Ang II + SS-31 (vs. Ang II)
# Description: as §1, with “time.” for “time. An increase in MPI is an indication that a greater fraction of systole is spent to cope with the pressure changes during the isovolemic phases.”
# NADPH Oxidase activity. […] In brief, […] of ventricular protein extract was incubated with dihydroethidium (DHE, 10 μM), sperm DNA (1.25 μg/ml), and NADPH (50 μM) in PBS/DTPA (containing 100 μM DTPA), The assay was incubated at 37° C. in the dark for 30 min and the fluorescence was detected using excitation/emission of 490/580 nm.
# [4] = test system: mitochondrial protein carbonyl groups; experiment: Cardiac mitochondrial protein carbonyl ELISA after 4 weeks of Ang II; format: in vivo, mouse; conditions: 4 weeks Ang II (vs. saline) or Ang II + SS-31 (vs. Ang II)
# Description: as §2, with “treatment. […]” for “treatment.”
# C57BL6 mice [5] = experiment: Ang II-induced cardiomyopathy: echocardiography and heart weight after 4 weeks; format: in vivo, mouse
# Description: as §2
# C57BL6 mice [6] = experiment: Blood pressure by intravascular telemetry after pressor dose of Ang II; format: in vivo, mouse
# Description: as §2
# Blood pressure was measured in a separate group of mice by telemetry using an intravascular catheter PA-C10 (DSI, MN), in which measurement was performed every three hours starting from 2 days before pump placement until 2 days after Ang pump placement.
# [7] = test system: cleaved caspase-3, phospho-p38 MAP kinase, p38; experiment: Western immunoblots of cardiac protein extracts after 4 weeks of Ang II; format: in vivo, mouse
# Description: as §2
# Western Immunoblots. Cardiac protein extracts were prepared by homogenization in lysis buffer containing protease and phosphatase inhibitors on ice (1.5 mM KCl, 50 mM Tris HCl, 0.125% Sodium deoxycholate, 0.375% Triton X 100, 0.15% NP40, 3 mM EDTA). The samples were sonicated and centrifuged at 10,000 g for 15 min in 4° C. The supernatant was collected and the concentration was determined using a BCA assay (Pierce Thermo Scientific, Rockford, IL). Total protein (25 μg) was separated on NuPAGE 4-12% Bis-Tris gel (Invitrogen) and transferred to 0.45 μm PVDF membrane (Millipore), and then blocked in 5% non-fat dry milk in Tris-buffer solution with 0.1% Tween-20 for 1 hour. Primary antibodies were incubated overnight, and secondary antibodies were incubated for 1 hour. The primary antibodies included: rabbit monoclonal anti-cleaved caspase-3 (Cell Signaling), mouse monoclonal anti-GAPDH (Millipore), rabbit polyclonal phospho-p38 MAP kinase (Cell Signaling), and mouse monoclonal anti-p38 (Santa Cruz Biotechnology). The enhanced chemiluminescence method (Thermo Scientific) was used for detection. Image Quant ver.2.0 was used to quantified the relative band density as a ratio to GAPDH (internal control). All samples were normalized to the same cardiac protein sample.
# [8] = 4 weeks Ang II (vs. saline) or Ang II + SS-31 (vs. Ang II)
# [9] = 4 weeks Ang II 1.1 mg/kg/d with or without SS-31 3 mg/kg/d
# [10] = 4 weeks of Ang II, in the presence or absence of SS-31
# [11] = Ang II 1.1 mg/kg/d subcutaneous pump, FIG. 2B
compound,measurement,setting,value
"2′,6′-Dmt-D-Arg-Phe-Lys-NH2 [SS-02]",penetration of the plasma membrane,[1],readily penetrates the plasma membrane
CC(=O)N[C@@H](CS)C(=O)O [N-acetyl cysteine],effect on Ang II-induced Mitosox fluorescence / mitochondrial ROS,neonatal cardiomyocytes; SS-31 1 nM or NAC 0.5 mM together with Ang II 1 μM for 3 hours,did not show any effect
Angiotensin II [Ang II],increase of Mitosox fluorescence (indicator of mitochondrial superoxide),"neonatal cardiomyocytes; Ang II 1 μM, 3 hours, neonatal cardiomyocytes",approximately 2 fold
same,increase in ventricular fibrosis (blue staining on trichrome),C57BL6 mice [2],greater than 3 fold
same,"expression of PGC-1α and downstream target genes TFAM, NRF-1 and NRF-2",[3]; [8],induced the expression
same,increase in ANP gene expression,[3]; 4 weeks of Ang II,~15 fold
same,increase in Coll1a2 gene expression,[3]; 4 weeks of Ang II,~2.5 fold
same,cardiac NADPH oxidase activity,NADPH oxidase,significantly increased
same,ventricular mitochondrial protein carbonyl content,[4],significantly increased
same,Ea/Aa,C57BL6 mice [5]; [9],0.723±0.15
same,LVMI,C57BL6 mice [5]; [9],6.32 ± 0.39 mg/g
same,heart weight (normalized to tibia length),"C57BL6 mice [5]; 4 weeks Ang II with or without SS-31, saline 5.3±0.18",7.69±0.20 mg/mm
same,increase in heart weights above saline treated control hearts,C57BL6 mice [5]; 4 weeks of Ang II,45%
same,decline in Ea/Aa (diastolic function),C57BL6 mice [5]; 4 weeks of Ang II 1.1 mg/kg/d,~35%
same,increase in left ventricular mass index (LVMI) compared with baseline,C57BL6 mice [5]; 4 weeks of Ang II 1.1 mg/kg/d,approximately 2 fold
same,change in LV end diastolic diameter (LVEDD),C57BL6 mice [5]; [10],no change
same,"change in fractional shortening (FS, systolic function)",C57BL6 mice [5]; [10],no change
same,increase in systolic and diastolic blood pressure above baseline,C57BL6 mice [6]; Ang II 1.1 mg/kg/d,25-28 mm Hg
same,increase in diastolic pressure,C57BL6 mice [6]; [11],24.8 mm Hg
same,increase in systolic blood pressure,C57BL6 mice [6]; [11],27.2 mm Hg
same,diastolic blood pressure after Ang II,"C57BL6 mice [6]; Ang II 1.1 mg/kg/d, baseline 94.5±3.5",119.3±4.0 mm Hg
same,phosphorylation of p38 MAPK,[7]; [8],increased
same,increase in cleaved (activated) caspase-3 in left ventricular tissue,[7]; 4 weeks of Ang II,approximately 3 fold
same,protein levels of p38 MAP kinase,"[7]; 4 weeks of Ang II, FIG. 6C",increased
